Measurements published in PubChem BioAssay AID2060893 (Molecular Pharmacology Branch, DTP, NCI, 2025).
pIC50: −log10 of the molar value.

System: K86415-001-R-J1-PDC complex spheroids, viability
Experiment: Anticancer human tumor K86415-001-R-J1-PDC patient-derived lung adenocarcinoma cell line growth inhibition [RAS]
Settings: for pIC50: curve of first compound; for viability, T/C: stronger effect = lower value; active = viability on the fitted dose curve at most 10% of control; inactive = the rest
Outline: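 Agents were tested in combination matrices in half-log decrements from a top concentration at or near clinical Cmax (10 microM if undetermined). Targets were multi-cell spheroids of tumour lines plus HUVEC and MSC stromal cells.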

[1] = second compound 0.000949 µM, first compound 0.0316 µM
[2] = second compound 0.000949 µM, first compound 0.1 µM
[3] = second compound 0.000949 µM, first compound 0.316 µM
[4] = second compound 0.000949 µM, first compound 1 µM
[5] = second compound 0.000949 µM, first compound 3.16 µM
[6] = second compound 0.000949 µM, first compound 10 µM
[7] = second compound 0.003 µM, first compound 0.0316 µM
[8] = second compound 0.003 µM, first compound 0.1 µM
[9] = second compound 0.003 µM, first compound 0.316 µM
[10] = second compound 0.003 µM, first compound 1 µM
[11] = second compound 0.003 µM, first compound 3.16 µM
[12] = second compound 0.003 µM, first compound 10 µM
[13] = second compound 0.00949 µM, first compound 0.0316 µM
[14] = second compound 0.00949 µM, first compound 0.1 µM
[15] = second compound 0.00949 µM, first compound 0.316 µM
[16] = second compound 0.00949 µM, first compound 1 µM
[17] = second compound 0.00949 µM, first compound 3.16 µM
[18] = second compound 0.00949 µM, first compound 10 µM
[19] = second compound 0.03 µM, first compound 0.0316 µM
[20] = second compound 0.03 µM, first compound 0.1 µM
[21] = second compound 0.03 µM, first compound 0.316 µM
[22] = second compound 0.03 µM, first compound 1 µM
[23] = second compound 0.03 µM, first compound 3.16 µM
[24] = second compound 0.03 µM, first compound 10 µM
[25] = second compound 0.0949 µM, first compound 0.0316 µM
[26] = second compound 0.0949 µM, first compound 0.1 µM
[27] = second compound 0.0949 µM, first compound 0.316 µM
[28] = second compound 0.0949 µM, first compound 1 µM
[29] = second compound 0.0949 µM, first compound 3.16 µM
[30] = second compound 0.0949 µM, first compound 10 µM
[31] = second compound 0.3 µM, first compound 0.0316 µM
[32] = second compound 0.3 µM, first compound 0.1 µM
[33] = second compound 0.3 µM, first compound 0.316 µM
[34] = second compound 0.3 µM, first compound 1 µM
[35] = second compound 0.3 µM, first compound 3.16 µM
[36] = second compound 0.3 µM, first compound 10 µM
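Note: spheroids exposed to agents for seven days before readout.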

CC(C)NCC(C(=O)N1CCN(c2ncnc3c2C(C)CC3O)CC1)c1ccc(Cl)cc1 (centres undefined) + CCn1c(-c2cc(N3CCN(C)CC3)cnc2C(C)OC)c2c3cc(ccc31)-c1csc(n1)CC(NC(=O)C1CC1C)C(=O)N1CCCC(N1)C(=O)OCC(C)(C)C2
7.37: pIC50 (second compound 0.000949 µM)
active: viability, T/C [11] 10.4% | viability, T/C [12] 3.32% | viability, T/C [15] 6.91% | viability, T/C [16] 4.13% | viability, T/C [17] 1.63% | viability, T/C [18] 1% | viability, T/C [19] 5.32% | viability, T/C [20] 4.39% | viability, T/C [21] 3.56% | viability, T/C [22] 1.38% | viability, T/C [23] 0.66% | viability, T/C [24] 0.65% | viability, T/C [25] 2.69% | viability, T/C [26] 3.08% | viability, T/C [27] 1.6% | viability, T/C [28] 0.75% | viability, T/C [29] 0.62% | viability, T/C [30] 0.56% | viability, T/C [31] 2.88% | viability, T/C [32] 1.88% | viability, T/C [33] 1.86% | viability, T/C [34] 0.88% | viability, T/C [35] 0.75% | viability, T/C [36] 0.84%
inactive: viability, T/C [1] 52.1% | viability, T/C [2] 48.3% | viability, T/C [3] 28.8% | viability, T/C [4] 31.1% | viability, T/C [5] 29% | viability, T/C [6] 13.3% | viability, T/C [7] 25% | viability, T/C [8] 15.2% | viability, T/C [9] 13.7% | viability, T/C [10] 16% | viability, T/C [13] 12.1% | viability, T/C [14] 15.4%
> 7.50: pIC50 (second compound 0.003 µM) | pIC50 (second compound 0.00949 µM) | pIC50 (second compound 0.03 µM) | pIC50 (second compound 0.0949 µM) | pIC50 (second compound 0.3 µM)

CCC(CC)c1cc(NC2CCC(N)C2)n2nccc2n1 (centres undefined) + CCn1c(-c2cc(N3CCN(C)CC3)cnc2C(C)OC)c2c3cc(ccc31)-c1csc(n1)CC(NC(=O)C1CC1C)C(=O)N1CCCC(N1)C(=O)OCC(C)(C)C2
> 7.50: pIC50 (second compound 0.003 µM) | pIC50 (second compound 0.00949 µM) | pIC50 (second compound 0.03 µM) | pIC50 (second compound 0.0949 µM) | pIC50 (second compound 0.3 µM)
inactive: viability, T/C [1] 46.1% | viability, T/C [2] 48.5% | viability, T/C [3] 56.8% | viability, T/C [4] 79% | viability, T/C [7] 25.1% | viability, T/C [8] 26.1% | viability, T/C [9] 27.8% | viability, T/C [10] 36.2% | viability, T/C [11] 4.27% | viability, T/C [13] 9.9% | viability, T/C [14] 11.2%
active: viability, T/C [5] 3.84% | viability, T/C [6] 4.58% | viability, T/C [12] 4.26% | viability, T/C [15] 12.9% | viability, T/C [16] 11.8% | viability, T/C [17] 3.06% | viability, T/C [18] 3.75% | viability, T/C [19] 5.14% | viability, T/C [20] 6.25% | viability, T/C [21] 7.94% | viability, T/C [22] 6.31% | viability, T/C [23] 3.03% | viability, T/C [24] 3.65% | viability, T/C [25] 4.23% | viability, T/C [26] 3.98% | viability, T/C [27] 3.55% | viability, T/C [28] 2.72% | viability, T/C [29] 2.97% | viability, T/C [30] 3.31% | viability, T/C [31] 2.9% | viability, T/C [32] 2.91% | viability, T/C [33] 3.27% | viability, T/C [34] 2.5% | viability, T/C [35] 4.29% | viability, T/C [36] 3.48%
5.93: pIC50 (second compound 0.000949 µM)
